In patent publication US8206898B2, “RNA exit channel: target and method for inhibition of bacterial RNA polymerase” (priority 2003, dated 2012):

How the values were obtained:
[1] = tested on: Escherichia coli hyper-permeable strain D21f2/TolC; test: MIC of Lpm for Escherichia coli Lpm^R isolates from saturation mutagenesis and selection; assay type: cell-based
Procedure: To define systematically determinants for function of Lpm, saturation mutagenesis of Escherichia coli rpoB and rpoC was performed, and Lpm^R mutants were isolated and characterized (targeting codons or residues located within 20 Å of Bacillus subtilis Lpm^R sites in the three-dimensional structure of RNAP; methods as in Mukhopadhyay, et al., (2004) Mol. Cell, in press, except that selection was performed in hyper-permeable strain D21f2/TolC (rfa tolC; Fralick et al., (1994) J. Bacteriol. 176, 6404-6406)). 24 independent single-substitution Lpm^r mutants were identified (Table 2). The substitution sites define an approximately 20 Å×20 Å continuous surface, located within the RNA-exit-channel, spanning the target, and containing each residue of the target (i.e., residues 1251, 1256, and 1321 of β and residues 248-249 of β′; Table 2). Substitution sites corresponding to substitution sites in the Bacillus subtilis Lpm^R mutants described above were among those identified (i.e., residue 1256 of β and residues 249 and 337 of β′; Tables 1, 2).

[2] = biological target: RNAP-promoter open complex (RNAP holoenzyme, lacUV5-12 DNA fragment) (Escherichia coli, UniProt P0A8T7+P0A8V2); test: Electrophoretic mobility-shift analysis of open-complex formation; assay type: biochemical; conditions: 0-100 μm Lpm, added to RNAP before addition of the promoter DNA; FIG. 3
Procedure: To determine whether Lpm inhibits steps in transcription up to and including formation of the RNAP-promoter open complex, electrophoretic mobility-shift experiments were performed. The analysis of open-complex formation was performed as follows: reaction mixtures (20 μl) contained 100 nM RNAP holoenzyme, 20 nM fluorochrome-labeled DNA fragment lacUV5-12 (Cy5, +26) (Mukhopadhyay et al., 2001), and 0-100 μm Lpm in TB (50 mM Tris-HCl (pH 8.0), 100 mM KCl, 10 mM MgCl2, 1 mM dithiothreitol, 10 μg/ml bovine serum albumin, and 5% glycerol), added before or after the DNA. Following 15 min at 37° C., 0.5 μl 1 mg/ml heparin was added (to disrupt non-specific complexes), and, following a further 2 minutes at 37° C., reaction mixtures were applied to 5% polyacrylamide slab gels (30:1 acrylamide/bisacrylamide; 6×9×0.1 cm) and electrophoresed in 90 mM Tris-borate (pH 8.0) and 0.2 mM EDTA (20 V/cm; 30 min at 37° C.) and analyzed using a fluorescence scanner (Storm 860; Molecular Dynamics).

[3] = tested on: Gram-positive bacteria and Gram-negative bacteria; conditions: literature (Coronelli et al., 1975); cited from earlier work
[4] = tested on: bacterial RNAP; conditions: literature; cited from earlier work

RNAP-promoter open complex (RNAP holoenzyme, lacUV5-12 DNA fragment), sequence (P0A7Z4 whole entry, the tested form may be a part): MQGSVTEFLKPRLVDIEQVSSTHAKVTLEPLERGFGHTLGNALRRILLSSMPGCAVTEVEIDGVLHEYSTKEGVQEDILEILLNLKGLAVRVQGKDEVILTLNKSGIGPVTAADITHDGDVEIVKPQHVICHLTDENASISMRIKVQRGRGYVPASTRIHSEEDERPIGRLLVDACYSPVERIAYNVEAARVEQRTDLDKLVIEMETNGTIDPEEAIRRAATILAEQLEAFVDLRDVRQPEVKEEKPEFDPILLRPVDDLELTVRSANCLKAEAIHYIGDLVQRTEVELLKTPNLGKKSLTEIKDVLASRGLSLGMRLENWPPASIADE
RNAP-promoter open complex (RNAP holoenzyme, lacUV5-12 DNA fragment), sequence (P0A8V2 whole entry, the tested form may be a part): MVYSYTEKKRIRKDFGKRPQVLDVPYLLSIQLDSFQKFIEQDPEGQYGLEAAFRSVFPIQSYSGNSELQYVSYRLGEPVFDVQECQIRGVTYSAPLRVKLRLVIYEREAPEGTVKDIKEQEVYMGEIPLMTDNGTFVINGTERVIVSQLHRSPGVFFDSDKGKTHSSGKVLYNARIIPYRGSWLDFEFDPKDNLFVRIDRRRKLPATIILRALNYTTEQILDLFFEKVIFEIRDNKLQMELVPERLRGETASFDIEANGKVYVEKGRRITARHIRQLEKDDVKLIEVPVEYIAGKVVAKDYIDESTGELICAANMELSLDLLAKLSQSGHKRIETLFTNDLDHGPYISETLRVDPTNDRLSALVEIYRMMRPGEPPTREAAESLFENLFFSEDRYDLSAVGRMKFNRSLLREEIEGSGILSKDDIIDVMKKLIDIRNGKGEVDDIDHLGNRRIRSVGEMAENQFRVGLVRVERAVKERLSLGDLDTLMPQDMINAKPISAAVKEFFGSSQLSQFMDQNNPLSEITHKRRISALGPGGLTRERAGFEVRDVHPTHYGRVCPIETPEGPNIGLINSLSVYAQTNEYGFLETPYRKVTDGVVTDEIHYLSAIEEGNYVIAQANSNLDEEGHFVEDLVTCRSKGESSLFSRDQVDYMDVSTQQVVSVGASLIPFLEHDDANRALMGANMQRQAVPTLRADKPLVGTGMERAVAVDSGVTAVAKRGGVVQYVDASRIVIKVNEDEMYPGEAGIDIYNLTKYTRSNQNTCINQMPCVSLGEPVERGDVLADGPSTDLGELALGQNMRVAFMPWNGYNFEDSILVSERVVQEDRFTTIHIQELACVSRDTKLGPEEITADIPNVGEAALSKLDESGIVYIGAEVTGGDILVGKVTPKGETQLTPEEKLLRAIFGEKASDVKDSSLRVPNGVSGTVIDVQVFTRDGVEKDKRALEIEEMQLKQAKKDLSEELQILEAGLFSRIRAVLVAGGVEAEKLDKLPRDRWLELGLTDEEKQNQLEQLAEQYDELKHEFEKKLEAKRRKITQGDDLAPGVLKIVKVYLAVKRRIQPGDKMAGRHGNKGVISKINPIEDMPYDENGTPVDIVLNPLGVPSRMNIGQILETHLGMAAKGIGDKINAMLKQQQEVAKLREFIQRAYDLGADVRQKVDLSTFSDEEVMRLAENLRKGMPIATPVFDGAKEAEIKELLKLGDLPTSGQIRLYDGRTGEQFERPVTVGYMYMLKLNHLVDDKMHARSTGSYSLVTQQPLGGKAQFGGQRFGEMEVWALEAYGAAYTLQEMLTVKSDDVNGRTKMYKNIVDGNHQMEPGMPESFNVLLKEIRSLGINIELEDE
RNAP-promoter open complex (RNAP holoenzyme, lacUV5-12 DNA fragment), sequence (P0A800 whole entry, further chain, the tested form may be a part): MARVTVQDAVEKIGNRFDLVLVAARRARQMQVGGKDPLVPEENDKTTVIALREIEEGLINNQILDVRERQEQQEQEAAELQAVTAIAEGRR
RNAP-promoter open complex (RNAP holoenzyme, lacUV5-12 DNA fragment), sequence (P00579 whole entry, further chain, the tested form may be a part): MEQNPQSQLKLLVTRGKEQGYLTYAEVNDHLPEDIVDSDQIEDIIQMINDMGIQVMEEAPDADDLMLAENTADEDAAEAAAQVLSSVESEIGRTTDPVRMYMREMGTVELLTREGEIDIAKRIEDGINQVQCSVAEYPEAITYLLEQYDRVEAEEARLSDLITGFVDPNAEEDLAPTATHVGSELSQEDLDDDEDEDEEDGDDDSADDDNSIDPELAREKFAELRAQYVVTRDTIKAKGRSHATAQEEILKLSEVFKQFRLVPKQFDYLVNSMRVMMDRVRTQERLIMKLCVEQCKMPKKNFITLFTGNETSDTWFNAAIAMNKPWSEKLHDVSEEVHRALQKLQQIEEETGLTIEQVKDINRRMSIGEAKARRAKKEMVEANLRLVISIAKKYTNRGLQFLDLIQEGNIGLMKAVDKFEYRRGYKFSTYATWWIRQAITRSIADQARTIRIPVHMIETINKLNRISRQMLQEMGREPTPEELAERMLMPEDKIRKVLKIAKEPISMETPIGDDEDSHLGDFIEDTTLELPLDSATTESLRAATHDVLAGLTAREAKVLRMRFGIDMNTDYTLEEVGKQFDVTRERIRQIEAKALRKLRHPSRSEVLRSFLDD
RNAP-promoter open complex (RNAP holoenzyme, lacUV5-12 DNA fragment), sequence (P0A8T7 whole entry, the tested form may be a part): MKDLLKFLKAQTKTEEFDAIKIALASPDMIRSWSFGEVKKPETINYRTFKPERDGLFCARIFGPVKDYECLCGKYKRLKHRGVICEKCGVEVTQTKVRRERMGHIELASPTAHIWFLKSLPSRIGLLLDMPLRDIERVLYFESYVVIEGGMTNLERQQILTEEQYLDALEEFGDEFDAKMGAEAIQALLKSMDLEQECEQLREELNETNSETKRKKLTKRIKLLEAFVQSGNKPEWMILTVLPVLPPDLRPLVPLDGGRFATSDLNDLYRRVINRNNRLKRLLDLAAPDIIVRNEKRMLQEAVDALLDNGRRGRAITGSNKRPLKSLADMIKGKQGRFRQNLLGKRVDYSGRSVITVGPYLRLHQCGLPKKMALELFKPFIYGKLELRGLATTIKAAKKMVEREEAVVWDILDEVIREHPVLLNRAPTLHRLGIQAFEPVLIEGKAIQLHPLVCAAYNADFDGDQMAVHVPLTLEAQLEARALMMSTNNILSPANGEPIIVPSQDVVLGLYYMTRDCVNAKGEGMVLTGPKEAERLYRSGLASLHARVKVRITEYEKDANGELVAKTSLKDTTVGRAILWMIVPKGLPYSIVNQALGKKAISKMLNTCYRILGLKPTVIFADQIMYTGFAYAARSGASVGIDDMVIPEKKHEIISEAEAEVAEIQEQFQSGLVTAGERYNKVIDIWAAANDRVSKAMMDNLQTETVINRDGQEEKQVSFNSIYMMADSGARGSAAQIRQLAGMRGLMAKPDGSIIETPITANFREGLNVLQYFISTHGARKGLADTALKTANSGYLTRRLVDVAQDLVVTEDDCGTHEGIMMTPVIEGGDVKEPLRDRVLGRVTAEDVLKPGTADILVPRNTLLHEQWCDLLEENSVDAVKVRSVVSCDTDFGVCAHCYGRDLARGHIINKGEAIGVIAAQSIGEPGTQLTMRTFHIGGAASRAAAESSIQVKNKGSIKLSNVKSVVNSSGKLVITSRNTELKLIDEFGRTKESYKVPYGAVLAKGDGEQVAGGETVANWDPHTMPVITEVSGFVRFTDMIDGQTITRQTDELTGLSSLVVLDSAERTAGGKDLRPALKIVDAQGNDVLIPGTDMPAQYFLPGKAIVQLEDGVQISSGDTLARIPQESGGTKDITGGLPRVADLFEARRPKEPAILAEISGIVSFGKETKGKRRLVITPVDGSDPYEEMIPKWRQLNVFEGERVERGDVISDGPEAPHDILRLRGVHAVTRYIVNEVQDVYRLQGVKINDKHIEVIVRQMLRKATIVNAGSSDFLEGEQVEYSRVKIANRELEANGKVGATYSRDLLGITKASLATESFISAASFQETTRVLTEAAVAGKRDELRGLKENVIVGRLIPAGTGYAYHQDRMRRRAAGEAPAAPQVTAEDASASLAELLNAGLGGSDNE

lipiarmycin [Lpm]
MIC (mg/ml) (wild-type = 1) ([1]; RpoB 1251 Tyr→Phe): 10 fold relative to wild-type | MIC (mg/ml) (wild-type = 1) ([1]; RpoB 1256 Gln→Glu): 10 fold relative to wild-type | MIC (mg/ml) (wild-type = 1) ([1]; RpoB 1256 Gln→Leu): 5 fold relative to wild-type | MIC (mg/ml) (wild-type = 1) ([1]; RpoB 1302 Thr→Pro): 5 fold relative to wild-type | MIC (mg/ml) (wild-type = 1) ([1]; RpoB 1318 Gly→Ser): 5 fold relative to wild-type | MIC (mg/ml) (wild-type = 1) ([1]; RpoB 1319 Met→Arg): 10 fold relative to wild-type | MIC (mg/ml) (wild-type = 1) ([1]; RpoB 1319 Met→Lys): 5 fold relative to wild-type | MIC (mg/ml) (wild-type = 1) ([1]; RpoB 1321 Glu→Val): 5 fold relative to wild-type | MIC (mg/ml) (wild-type = 1) ([1]; RpoB 1325 Val→Ala): 10 fold relative to wild-type | MIC (mg/ml) (wild-type = 1) ([1]; RpoB 1325 Val→Leu): 5 fold relative to wild-type | MIC (mg/ml) (wild-type = 1) ([1]; RpoC 248 Asp→Tyr): 5 fold relative to wild-type | MIC (mg/ml) (wild-type = 1) ([1]; RpoC 249 Leu→Arg): 5 fold relative to wild-type | MIC (mg/ml) (wild-type = 1) ([1]; RpoC 337 Arg→Hys): 5 fold relative to wild-type | MIC (mg/ml) (wild-type = 1) ([1]; RpoC 337 Arg→Ser): 5 fold relative to wild-type | MIC (mg/ml) (wild-type = 1) ([1]; wild-type E. coli): (wild-type = 1) mg/ml | formation of the RNAP-promoter open complex [2]: inhibits formation of the RNAP-promoter open complex | antibacterial effectiveness [3]: effective against both Gram-positive bacteria and Gram-negative bacteria | inhibition of bacterial RNAP [4]: inhibits bacterial RNAP
